SMILES strings stand for the structures.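 Interpolation was linear, between the two tested concentrations surrounding the appropriate level; five concentrations were tested over 48 hours in 96-well plates. GI50 marks 50% less growth. TGI: total growth inhibition.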 Bounds are passed on as bounds.

What all share (test): inhibition of tumour cell growth, NCI panel, 48 h
For assay [1], the system named is A549 NSCLC.
Assay [2] has as its system HCT-15 colon.
The test system of assay [3] is IGROV1 ovarian.
The subject of assay [4] is MOLT-4 leukemia.
Assay [5] relates to NCI-H23 lung.
The test system of assay [6] is OVCAR-5 ovarian.
Assay [7] relates to PC-3 prostate.
The test system of assay [8] is UO-31 renal.
In assay [9] the test system is U251 CNS.
The test system of assay [10] is LOX IMVI melanoma.

For the compound `COc1cccc2c1C(=O)c1c(O)c3c(c(O)c1C2=O)C[C@@](O)(/C(C)=N/NC(=O)c1ccc(Cl)cc1)C[C@@H]3OC1CC(N)C(O)C(C)O1` (some centres undefined), the GI50 in [1] was 0.124 µM; in [2] it was 1.02 µM; in [3] it was 0.138 µM; in assay [4] it was 0.0545 µM; in assay [5], 0.194 µM; in assay [6], 0.379 µM. In addition, the GI50 was 0.293 µM in [7] and 0.488 µM in assay [8]. For the same compound, the TGI in [1] was 1.85 µM; in [2], 12.6 µM; in assay [3] it was 2.74 µM; in [4], 3.31 µM; in assay [5], 1.12 µM; in assay [6], 3.81 µM. Moreover, the TGI amounted to 1.6 µM in assay [7] and 4.55 µM in [8].
Take `COc1ccc(-c2cc(/C=C/C(=O)c3ccc(OC)c(OC)c3)[nH]n2)cc1`: the GI50 is 1.88 µM in assay [1]; 1.35 µM in assay [2]; 1.57 µM in [3]; 2.67 µM in assay [4]; 2.47 µM in [5]; 1.65 µM in assay [6]. Besides, the GI50 in assay [7] was 1.45 µM; in assay [9] it was 1.11 µM; in assay [8], 1.17 µM. Besides, the TGI was found to be 5.95 µM in assay [1]; 3.56 µM in assay [2]; 3.65 µM in assay [3]; 8 µM in [4]; 6.33 µM in [5]; 4.09 µM in assay [6]. The TGI in [7] was found to be 3.46 µM; in assay [9], 2.34 µM; in assay [8], 2.44 µM.
`CCOC(=O)c1c(-c2ccc(OC)cc2)c(C#N)c2c(C#N)c(N)nn2c1N`: the GI50 in assay [1] is 5.06 µM; in assay [2], 2.95 µM; in [3], 3.48 µM; in assay [10], 4.81 µM; in assay [4], 4.07 µM; in [5] it was 4.69 µM. Moreover, the GI50 in [6] was 5.65 µM; in assay [9], 4.19 µM; in assay [8] it was 3.49 µM. Further, the TGI in assay [1], in assay [2], in assay [3], in assay [10], in assay [4] and in assay [5] was over 100 µM throughout. Further, the TGI is over 100 µM in assay [6], 23.7 µM in assay [9] and 90 µM in assay [8].
For the compound `[N-]=[N+]=N/C1=C/CCCCC(=O)C1`, the TGI in [1], in assay [2], in [3], in assay [10], in assay [4] and in assay [5] was over 100 µM in each case. Besides, the TGI in assay [6] and in [8] was over 100 µM in each case.
For the compound `C=CCN1CCC23c4c5ccc(O)c4OC2C(=NN=C2CCC4(O)C6Cc7ccc(O)c8c7C4(CCN6CC=C)C2O8)CCC3(O)C1C5` (centres undefined), the TGI in assay [1] is 42.8 µM; in [2] it was over 100 µM; in assay [3] it was over 100 µM; in [10], 41.1 µM; in assay [4], over 100 µM; in assay [5], over 100 µM. For the same compound, the TGI in assay [6] is over 100 µM; in assay [9] it was 34.9 µM; in assay [8], over 100 µM.
For the compound `Cc1ccc(S(=O)OCc2c(C)c(C)c(COS(=O)c3ccc(C)cc3)c(C)c2C)cc1` (centres undefined), the TGI in assay [1], in [2], in [3], in [10], in assay [4] and in [5] was over 100 µM each time. Further, the TGI in assay [6], in assay [9] and in assay [8] was over 100 µM in each case.
With `CCN(CC)CCSc1c2ccccc2nc2c(OC)ccc(OC)c12`, the TGI is 50.1 µM in [1]; 51.4 µM in [3]; over 41.2 µM in assay [10]; 3.84 µM in assay [4]; 27.9 µM in assay [5]; 48.2 µM in assay [6]. In addition, the TGI is 49.4 µM in assay [9] and 33.9 µM in [8].
For `Cn1cc(-c2csc(-c3c[nH]c4ccc(Br)cc34)n2)c2cnccc21`, the GI50 was 2.81 µM in [1], 1.38 µM in assay [2], 2.73 µM in [5] and 2.02 µM in [7]. Further, the TGI in [1] is 11.5 µM; in assay [2] it was 2.85 µM; in [5] it was 8.79 µM; in [7] it was 4.15 µM.
On to `O=c1[nH]c2ccc(O)cc2o1`, for which the TGI in assay [1], in [2], in assay [3], in [4], in assay [5] and in assay [6] was over 100 µM throughout. Also, the TGI in assay [7], in [9] and in [8] was over 100 µM in each case.
With `O=[P@@]1(c2ccccc2)O[C@H](COCc2ccccc2)[C@@H](OCc2ccccc2)[C@H](OCc2ccccc2)[C@H]1NCc1ccccc1`, the GI50 in [1] was 3.04 µM; in assay [2] it was 3.54 µM; in assay [10] it was 3.25 µM; in assay [4] it was 2.38 µM; in assay [5] it was 3.66 µM; in assay [6], 3.51 µM. Besides, the GI50 in assay [7] was 3.03 µM; in [9] it was 2.97 µM. Also, the TGI is over 100 µM in assay [1]; over 100 µM in assay [2]; 18.6 µM in assay [10]; 7.8 µM in assay [4]; over 100 µM in assay [5]; over 100 µM in assay [6]. Besides, the TGI in [7] and in [9] was over 100 µM throughout.
For `CN(C)CCC(=O)C(=Cc1ccc(O)cc1)C(=O)CCN(C)C`, the GI50 is over 100 µM in assay [1]; 52.5 µM in assay [2]; over 100 µM in assay [3]; 79.6 µM in assay [10]; 80 µM in [4]; over 100 µM in assay [5]. Further, the GI50 in assay [6] was over 100 µM; in assay [9], 61.5 µM; in assay [8] it was 25.2 µM. The TGI in [1], in assay [2], in [3], in [10], in [4] and in [5] was over 100 µM throughout. The TGI is over 100 µM in assay [6], over 100 µM in assay [9] and 69.8 µM in assay [8].
Take `C[Si](C)(C)/C(Br)=C\CCN1C(=O)CCC1=O`: the TGI in assay [1], in assay [2], in [3], in assay [10], in assay [4] and in [5] was over 100 µM throughout. In addition, the TGI in assay [6], in [9] and in assay [8] was over 100 µM throughout.
For `O=C1CCC(=O)c2c1c(O)c1ccncc1c2O`, the TGI in assay [1] is 43.5 µM; in [2], 26.3 µM; in assay [3] it was 31.6 µM; in assay [10], 27.4 µM; in assay [4] it was 43.1 µM; in assay [5], 31.9 µM. Besides, the TGI in assay [6] worked out at 38.2 µM; in assay [9], 64.3 µM; in assay [8], 31.4 µM.
Turning to `C[Si](C)(C)/C(I)=C/CO`, the TGI was 76.3 µM in assay [1]; 72.1 µM in [2]; over 100 µM in [3]; 42.1 µM in assay [10]; 35.3 µM in assay [4]; 39.5 µM in assay [5]. The TGI in [6] was determined as 69 µM; in assay [9], 36.7 µM; in assay [8], 71.5 µM.
In the case of `CC(C)(C)[Si](C)(C)OC1C(=O)C[C@H]2CCCC[C@@H]12` (some centres undefined), the TGI in assay [1], in assay [2], in assay [3], in assay [10], in assay [4] and in assay [5] was over 100 µM throughout. Besides, the TGI in assay [6], in assay [9] and in assay [8] was over 100 µM in each case.
As for `COC(=O)C1=C(C(=O)OC)C2=S(SC3=C2CCCC3)S1` (centres undefined), the TGI in assay [1] is over 100 µM; in [2], 46.6 µM; in [3], over 100 µM; in assay [10], 7.05 µM; in assay [4], over 100 µM; in assay [5], over 100 µM. For the same compound, the TGI in assay [6] is 93.6 µM; in assay [9], 70.1 µM; in assay [8] it was over 100 µM.
Take `O=C1c2cc3c(cc2-c2c1c1cc(Cl)c(Cl)cc1c(=O)n2C[C@H](O)CO)OCO3`: the GI50 in assay [1] is under 0.01 µM; in assay [2] it was 0.0127 µM; in assay [3], 0.0219 µM; in assay [10] it was under 0.01 µM; in assay [5], under 0.01 µM; in assay [6] it was 0.0184 µM. Besides, the GI50 in [9] is under 0.01 µM. Besides, the TGI in assay [1] was determined as 0.253 µM; in assay [2], 14.3 µM; in assay [3], 2.08 µM; in assay [10], 0.0117 µM; in [5], 0.0448 µM; in assay [6], 0.955 µM. Besides, the TGI in assay [9] came to 0.0368 µM.
For the compound `CN(C)CCNC(=O)c1cccc2c(Nc3ccc(S(=O)(=O)N=C(N)N)cc3)c3ccccc3nc12`, the TGI in assay [1] is 48.4 µM; in assay [2], over 100 µM; in assay [3], 45 µM; in assay [10], 20.8 µM; in assay [4], 6.83 µM; in [5], over 100 µM. In addition, the TGI in [6] came to 90.4 µM; in assay [9], 67 µM; in assay [8], 48.6 µM.
Turning to `O=[N+]([O-])c1ccc(CI)cc1`, the GI50 in assay [1] is 3.68 µM; in assay [2], 1.17 µM; in assay [3], 4.31 µM; in assay [10] it was 1.3 µM; in assay [4] it was 1.32 µM; in assay [5] it was 3.32 µM. Further, the GI50 was 6.2 µM in [6], 2.91 µM in assay [9] and 1.79 µM in assay [8]. For the same compound, the TGI was 14.5 µM in assay [1]; 3.76 µM in [2]; 14.8 µM in [3]; 2.9 µM in assay [10]; 7.21 µM in [4]; 12.4 µM in assay [5]. The TGI in assay [6] was 20.4 µM; in [9], 10.4 µM; in assay [8], 3.59 µM.
Turning to `O=[N+]([O-])c1ccc(-c2cnc3ccccn23)cc1`, the TGI in [1], in assay [2], in assay [10], in assay [4], in assay [5] and in assay [6] was over 100 µM each time. Further, the TGI in assay [9] and in [8] was over 100 µM in each case.
`COc1ccc(/C(=C\C=C(C#N)C#N)Sc2nc3ccccc3s2)cc1`: the GI50 in [1] was 15.5 µM; in assay [3], 10 µM; in assay [5] it was 9.46 µM; in assay [6], 7.65 µM; in assay [7], 7.34 µM; in assay [9] it was 3.39 µM. The GI50 in assay [8] was 15.6 µM. Moreover, the TGI in assay [1] was over 50 µM; in [3], 46.4 µM; in assay [5], 20 µM; in assay [6], 15.1 µM; in assay [7], 14.3 µM; in assay [9] it was 11 µM. In assay [8], the TGI is over 50 µM.
Turning to `Cn1cnnc1Sc1c([N+](=O)[O-])ncn1C`, the TGI in [1], in [3], in [10], in [4], in [5] and in assay [6] was over 100 µM each time. For the same compound, the TGI in assay [9] and in assay [8] was over 100 µM throughout.
As to `C[C@]12CCC(=O)C=C1CC[C@@H]1C2CC[C@]2(C)Nc3[nH]ncc3CC12` (some centres undefined), the TGI in assay [1], in assay [2], in [3], in assay [4], in assay [5] and in assay [6] was over 100 µM each time. Besides, the TGI in assay [9] and in assay [8] was over 100 µM throughout.
As to `CS/C(=C(\S)c1ccccc1)c1ccccc1`, the TGI in assay [1], in assay [2], in [3], in [10], in [5] and in [6] was over 100 µM throughout. Moreover, the TGI in [9] and in assay [8] was over 100 µM each time.

The record behind these values is PubChem BioAssay (NCI).
